Measured values as given in article PMC11601558, “SLC6A19 inhibition facilitates urinary neutral amino acid excretion and lowers plasma phenylalanine” (JCI Insight, 2024).
Values joined by “and” are separate entries in the source; they are usually repeats but may differ in a detail not shown here. Equal entries are not always repeated.

Assays:
[1] = system: Pah^enu2 mice; assay: Plasma Phe in Pah^enu2 mice after JN-170; format: in vivo, mouse
Procedure: (§1) Male homozygous BTBR-Pah<enu2>/J (Pah^enu2) aged 10–13 weeks were purchased from Jackson Laboratory (no. 002232). Immediately before dosing, each animal’s bladder was manually emptied and a plasma sample was drawn. Animals were dosed by oral gavage with vehicle (10% DMSO, 20% 2-hydroxypropyl-β-cyclodextrin [Sigma-Aldrich]) followed by a 1-week washout prior to dosing with JN-170 at doses ranging from 50 to 250 mg/kg. Following dosing with vehicle or JN-170, animals were individually placed in metabolic cages to collect urine samples. After collection of each urine sample, cages were rinsed with ultra-pure water to recover residual analytes. Blood samples were collected predose as well as 1, 3, 8, 12, and 24 hours after dosing with vehicle or JN-170 into tubes with EDTA as a […], and plasma was separated by centrifuging samples at 2,200g for 5 minutes at 4°C. Throughout the study, mice had access to food and water ad libitum. Plasma and urine samples were stored at –80°C until processing.Ten-week-old male WT C57Bl/6J animals (Si Bei Fu Laboratory Animal Technology Co. Ltd.) were dosed either with vehicle or 50–250 mg/kg JN-170 by oral gavage and blood and urine samples were collected as described. All animals had unrestricted access to food and water during the study; C57Bl/6J were kept on rodent maintenance diet from Beijing Keao Xieli, Pah^enu2 mice were kept on Teklad diet no. T.2018.
(§2) Plasma sample analyses were carried out by liquid chromatography tandem mass spectrometry (LC-MS/MS). Plasma samples were mixed 1:1 with carbamazepine or ^13C6-Phe as internal standards for JN-170 and Phe, respectively. Plasma proteins were precipitated by adding 4 volumes of acetonitrile (ACN) and 0.1% formic acid (FA) followed by centrifugation for 5 minutes at 2,100g. Supernatants were diluted 1:1 in ACN and 0.1% FA. For JN-170, a Waters HSS T3 reversed phase column was used for separation using a binary gradient of 0.1% FA in water (mobile phase A) to 0.1% in ACN (mobile phase B). At a flow rate of 0.8 mL/min, the mobile phase gradient increased from an initial 25% phase B to 95% phase B over 30 seconds. After, 1.5 minutes, the gradient was returned to 25% mobile phase B. For detection of Phe, an Acquity UPLC ethylene bridged hybrid (BEH) amide column was used, with a binary gradient of 10 mM ammonium acetate in 95:5:1 H2O:ACN:FA (mobile phase A) to 10 mM ammonium acetate in 95:5:1 ACN:H2O:FA (mobile phase B). At a flow rate of 0.5 mL/min, the mobile phase gradient changed from an initial 100% phase B to 50% phase B over 2.1 minutes. It was returned to 100% phase B after 4 minutes. Analytes were detected using a Sciex API-5500 in multiple reaction monitoring mode using an electrospray ionization source in the positive ion mode with the following ion transitions: m/z 435.2/84.1 (JN-170), 237.1/194.1 (carbamazepine), 166.1/120.1 (Phe), 172.2/126.2 for (^13C6-Phe). Analyte concentrations were calculated with a 1/×^2 linear regression over a concentration range of 1 or 2 to 5,000 ng/mL for JN-170 and 0.05–100 ng/mL for Phe.
IC50 values for transport inhibition in cells overexpressing SLC6A19 and TMEM27 were calculated using a 4-parameter logistic regression in Collaborative Drug Discovery (CDD). Reported IC50 values are geometric means of 4–6 independent experiments. For postmortem intestinal transport assays, single outliers of quadruplicate replicates were excluded from the calculation if a signal value’s distance to the mean exceeded 35% of the signal average. The IC50 values of individual experiments were calculated with a 3- or 4-parameter logistic regression using GraphPad Prism 9. The reported IC50 value represents the geometric mean of n = 5 experiments from 3 individual donors. Statistical comparison of urinary Phe excretion in Pah^enu2 mice treated with vehicle or JN-170 was conducted using 1-way analysis of variance (ANOVA) with Tukey’s post hoc comparison. […]

[2] = JN-170 plasma pharmacokinetics in C57Bl/6J mice, single oral dose; format: in vivo, mouse; set-up: JN-170 plasma level (Fig 2a): unit not given here
Procedure: as §1, §2

N#Cc1ccc(-c2noc([C@]3(C(F)(F)F)CCN(C(=O)NCCC4(N)CC4)C3)n2)cc1 [JN-170]
plasma Phe, mean ± SD ([1]; 50 mg/kg, 3 hours): 984 ± 135 µM | plasma Phe lower than predose baseline ([1]; 50 mg/kg, 3 hours after dosing): 45% | plasma Phe decrease from baseline ([1]; 50 mg/kg, 12 hours): 34% | plasma Phe, mean ± SD ([1]; 50 mg/kg, 12 hours): 1,119 ± 124 μM | plasma Phe, mean ± SD ([1]; 250 mg/kg, 3 hours): 764 ± 43 µM | reduction in plasma Phe vs predose ([1]; 250 mg/kg, 3 hours): 54% | plasma Phe, mean ± SD ([1]; 250 mg/kg, 12 hours): 648 ± 106 µM | reduction in plasma Phe vs predose ([1]; 250 mg/kg, 12 hours): 61% | lowering of plasma Phe ([1]; plasma exposures with target coverage above the IC75): > 40% | JN-170 plasma level (Fig 2a) ([2]; 50 mg/kg oral, 1 h, individual C57Bl/6 mice): 4800 and 3580 and 3220 and 2280 and 3950 and 3920 | JN-170 plasma level (Fig 2a) ([2]; 50 mg/kg oral, 3 h, individual C57Bl/6 mice): 1290 and 798 and 1160 and 1370 and 1130 and 1480 | JN-170 plasma level (Fig 2a) ([2]; 50 mg/kg oral, 8 h, individual C57Bl/6 mice): 54.1 | JN-170 plasma level (Fig 2a) ([2]; 100 mg/kg oral, 1 h, individual C57Bl/6 mice): 5300 and 7590 and 9540 and 8120 and 9150 and 8490 | JN-170 plasma level (Fig 2a) ([2]; 100 mg/kg oral, 3 h, individual C57Bl/6 mice): 3330 and 3500 and 3620 and 5290 and 4430 and 4000 | JN-170 plasma level (Fig 2a) ([2]; 100 mg/kg oral, 8 h, individual C57Bl/6 mice): 1010 and 870 and 627 | JN-170 plasma level (Fig 2a) ([2]; 200 mg/kg oral, 1 h, individual C57Bl/6 mice): 12900 and 18300 and 14800 and 17900 and 16400 and 14100 | JN-170 plasma level (Fig 2a) ([2]; 200 mg/kg oral, 3 h, individual C57Bl/6 mice): 9760 and 9530 and 8870 and 8820 and 12800 and 12000 | JN-170 plasma level (Fig 2a) ([2]; 200 mg/kg oral, 8 h, individual C57Bl/6 mice): 2260 and 1430 and 1410 and 2700 and 2480 and 4110 | JN-170 plasma level (Fig 2a) ([2]; 250 mg/kg oral, 1 h, individual C57Bl/6 mice): 18600 and 13000 and 21300 and 27800 and 20500 and 19600 | JN-170 plasma level (Fig 2a) ([2]; 250 mg/kg oral, 3 h, individual C57Bl/6 mice): 13400 and 8320 and 12600 and 16100 and 11000 and 13600 | concentration at 8 h ([2]; male, C57Bl/6J, mouse, plasma, oral, 250 mg/kg, 250 mg/kg oral, 8 h, individual C57Bl/6 mice, read-out: JN-170 plasma level (Fig 2a)): 3650 ng/mL | concentration at 12 h ([2]; male, C57Bl/6J, mouse, plasma, oral, 250 mg/kg, 250 mg/kg oral, 12 h, individual C57Bl/6 mice, read-out: JN-170 plasma level (Fig 2a)): 1760 ng/mL | bioavailability ([2]; male, C57Bl/6J, mouse, plasma, po): ~5%
